Source: US20230203023A1, “SALT AND CRYSTAL FORMS OF GLP-1R AGONISTS AND USES THEREOF” (QILU REGOR THERAPEUTICS INC., priority 2020, published 2023)

What was measured:
[1] = Kinetic solubility test in water and bio-relevant media (SGF, FaSSIF, FeSSIF); format: physicochemical; conditions: for S: solubility: 37° C.; for Purity (%), area percentage of API: for reference only (suspensions); for FC: form change: residual solids by XRPD; for pH: supernatant
Experimental: Weigh 100 mg of sodium chloride and 50 mg of Triton X-100 into a 50-mL volumetric flask. Add appropriate volume of purified water and sonicate until all solids are completely dissolved. Add about 68 μL of 12 M HCl and sufficient purified water closely to the target volume and adjust to pH 1.8. Dilute to volume with purified water, mix well and check the pH with a pH meter.
Weigh 170 mg of sodium phosphate monobasic, 21 mg of sodium hydroxide and 310 mg of sodium chloride, 110 mg of SIF powder into a 50-mL volumetric flask. Add appropriate volume of purified water and sonicate until all solids are completely dissolved. Add sufficient purified water closely to the target volume and adjust to pH 6.5. Dilute to volume with purified water, mix well and check the pH with a pH meter.
Weigh 0.41 mL of glacial acetic acid, 202 mg of sodium hydroxide and 594 mg of sodium chloride, 560 mg of SIF powder into a 50-mL volumetric flask. Add appropriate volume of purified water to dissolve the solids. Then add sufficient purified water closely to the target volume and adjust to pH 5.0. Dilute to volume with purified water, mix well and check the pH with a pH meter.
Kinetic solubility was evaluated in water and three bio-relevant media (SGF, FaSSIF and FeSSIF) for 1/4/24 hours. 3-4 mg of solids were suspended in 3 mL each medium (solid loading: 1 mg/mL, calculated using freeform) to get a suspension, followed by rolling (25 rpm) at 37° C. for 1/4/24 hours. At each time point, ˜1.0 mL of suspension was sampled out for centrifugation (12000 rpm, 2 min) and filtration through 0.45 μm PTFE membrane to obtain supernatant for HPLC and pH tests, the residual solids were analyzed by XRPD.
Kinetic solubility was evaluated for 1:1 Compound II Citrate Salt (Form A), 1:1 Compound II Tris Salt (Form B), and freeform of Compound II in water and three bio-relevant media (SGF, FaSSIF and FeSSIF) for 1/4/24 hours. 3-4 mg of solids were suspended in 3 mL each medium (solid loading:
1 mg/mL, calculated using freeform) to get a suspension, followed by rolling (25 rpm) at 37° C. for 1/4/24 hours. At each time point, ˜1.0 mL of suspension was sampled out for centrifugation (12000 rpm, 2 min) and filtration through 0.45 μm PTFE membrane to obtain supernatant for HPLC and pH tests, the residual solids were analyzed by XRPD. […] The purity results were for reference only since the samples were all suspensions.

[2] = Solid stability evaluation (I/II), XRPD and HPLC; format: physicochemical; conditions: for Observation / Purity (area %): listed as Freeform
Experimental: To evaluate the physical and chemical stability of 1:1 Compound I Tris Salt (Form A) and amorphous free form, samples were stored under the conditions of 60° C. for 1 day and 25° C./60% RH or 40° C./75% RH for 1 week, respectively.
To evaluate the physical and chemical stability of 1:1 Compound II Citrate Salt (Form A), 1:1 Compound II Tris Salt (Form B) and freeform, samples were stored under the conditions of 60° C. for 1 day and 25° C./60% RH or 40° C./75% RH for 1 week, respectively.

[3] = FaSSIF, 1 hour, listed as Freeform
[4] = FaSSIF, 4 hours, listed as Freeform
[5] = FaSSIF, 24 hours, listed as Freeform
[6] = FeSSIF, 1 hour, listed as Freeform
[7] = FeSSIF, 4 hours, listed as Freeform
[8] = FeSSIF, 24 hours, listed as Freeform
[9] = H2O, 1 hour, listed as Freeform
[10] = H2O, 4 hours, listed as Freeform
[11] = H2O, 24 hours, listed as Freeform
[12] = SGF, 1 hour, listed as Freeform
[13] = SGF, 4 hours, listed as Freeform
[14] = SGF, 24 hours, listed as Freeform

N#Cc1ccc(COc2cccc(C3=CCN(Cc4nc5ccc(C(=O)O)cc5n4C[C@@H]4CCO4)CC3)n2)c(F)c1 [Compound II, (S)-2-((6-((4-cyano-2-fluorobenzyl)oxy)-3′,6′-dihydro-[2,4′-bipyridin]-1′(2′H)-yl)methyl)-1-(oxetan-2-ylmethyl)-1H-benzo[d]imidazole-6-carboxylic acid]
S: solubility [1, 3]: 20 µg/mL
Purity (%), area percentage of API [1, 3]: 85.92%
S: solubility [1, 4]: 20 µg/mL
Purity (%), area percentage of API [1, 4]: 72.84%
S: solubility [1, 5]: 20 µg/mL
Purity (%), area percentage of API [1, 5]: 66.76%
S: solubility [1, 6]: 30 µg/mL
Purity (%), area percentage of API [1, 6]: 71.16%
S: solubility [1, 7]: 20 µg/mL
Purity (%), area percentage of API [1, 7]: 47.29%
S: solubility [1, 8]: 40 µg/mL
Purity (%), area percentage of API [1, 8]: 37.65%
S: solubility [1, 9]: 30 µg/mL
Purity (%), area percentage of API [1, 9]: 93.84%
S: solubility [1, 10]: 30 µg/mL
Purity (%), area percentage of API [1, 10]: 86.44%
S: solubility [1, 11]: 40 µg/mL
Purity (%), area percentage of API [1, 11]: 89.76%
S: solubility [1, 12]: 200 µg/mL
Purity (%), area percentage of API [1, 12]: 94.17%
S: solubility [1, 13]: 200 µg/mL
Purity (%), area percentage of API [1, 13]: 81.32%
S: solubility [1, 14]: 100 µg/mL
Purity (%), area percentage of API [1, 14]: 76.04%
FC: form change ([1]; FaSSIF, 1 hour): No
FC: form change [1, 4]: No
FC: form change ([1]; FaSSIF, 24 hours): Yes
FC: form change ([1]; FeSSIF, 1 hour): No
FC: form change ([1]; FeSSIF, 4 hours): Yes
FC: form change [1, 8]: No
FC: form change ([1]; H2O, 1 hour): No
FC: form change [1, 10]: No
FC: form change [1, 11]: No
FC: form change [1, 12]: No
FC: form change ([1]; SGF, 4 hours): Yes
FC: form change ([1]; SGF, 24 hours): Yes
pH [1, 3]: 6.5
pH [1, 4]: 6.5
pH [1, 5]: 6.4
pH [1, 6]: 5.0
pH [1, 7]: 5.1
pH [1, 8]: 5.0
pH [1, 9]: 6.6
pH [1, 10]: 7.0
pH [1, 11]: 7.3
pH ([1]; SGF, 1 hour): 1.9
pH [1, 13]: 1.9
pH [1, 14]: 1.8
Form change ([2]; 25° C./60% RH (open), 1 week): No
Observation ([2]; 25° C./60% RH (open), 1 week): Yellow
Purity (area %) ([2]; 25° C./60% RH (open), 1 week): 94.58 area %
Form change ([2]; 40° C./75% RH (open), 1 week): No
Observation ([2]; 40° C./75% RH (open), 1 week): Yellow
Purity (area %) ([2]; 40° C./75% RH (open), 1 week): 92.86 area %
Form change ([2]; 60° C. (capped), 1 day): No
Observation ([2]; 60° C. (capped), 1 day): Yellow
Purity (area %) ([2]; 60° C. (capped), 1 day): 88.94 area %
Form change ([2]; Initial): No
Observation ([2]; Initial): Yellow
Purity (area %) ([2]; Initial): 95.27 area %
